Test results: ChEMBL document CHEMBL1255438, “Comparative activities of TR-700 (torezolid) against staphylococcal blood isolates collected in Spain” (2010)
≈ marks a conversion by molar mass, not a printed value.

How the values were obtained:
Assay type in all cases: functional
Staphylococcus [1] = assay: Antimicrobial activity against linezolid-resistant coagulase-negative Staphylococcus assessed as inhibition of microbial growth at 4 ug/ml by CLSI method
Staphylococcus [2] = assay: Antimicrobial activity against linezolid-susceptible coagulase-negative Staphylococcus by CLSI method
Staphylococcus [3] = assay: Antimicrobial activity against oxacillin-resistant coagulase-negative Staphylococcus aureus by CLSI method
Staphylococcus aureus [4] = assay: Antimicrobial activity against oxacillin-resistant Staphylococcus aureus assessed as inhibition of microbial growth at 0.5 ug/ml by CLSI method
Staphylococcus aureus [5] = assay: Antimicrobial activity against linezolid-resistant Staphylococcus aureus assessed as inhibition of microbial growth at 0.5 ug/ml by CLSI method
Staphylococcus aureus [6] = assay: Antimicrobial activity against oxacillin-resistant Staphylococcus aureus assessed as inhibition of microbial growth at =< 0.25 ug/ml by CLSI method
Staphylococcus aureus [7] = assay: Antimicrobial activity against methicillin-resistant Staphylococcus aureus by CLSI method
Staphylococcus aureus [8] = assay: Antimicrobial activity against oxacillin-resistant Staphylococcus aureus by CLSI method
Staphylococcus [9] = assay: Antimicrobial activity against linezolid-resistant coagulase-negative Staphylococcus assessed as inhibition of microbial growth at 1 ug/ml by CLSI method
Staphylococcus [10] = assay: Antimicrobial activity against linezolid-resistant coagulase-negative Staphylococcus by CLSI method
Staphylococcus aureus [11] = assay: Antimicrobial activity against linezolid-susceptible Staphylococcus aureus assessed as inhibition of microbial growth at 0.5 ug/ml by CLSI method
Staphylococcus [12] = assay: Antimicrobial activity against linezolid-resistant coagulase-negative Staphylococcus assessed as inhibition of microbial growth at 0.5 ug/ml by CLSI method
Staphylococcus [13] = assay: Antimicrobial activity against oxacillin-susceptible coagulase-negative Staphylococcus aureus by CLSI method
Staphylococcus [14] = assay: Antimicrobial activity against teicoplanin and methicillin-resistant coagulase-negative Staphylococcus by CLSI method
Staphylococcus [15] = assay: Antimicrobial activity against linezolid-susceptible coagulase-negative Staphylococcus assessed as inhibition of microbial growth at =< 0.25 ug/ml by CLSI method
Staphylococcus aureus [16] = assay: Antimicrobial activity against oxacillin-susceptible coagulase-negative Staphylococcus aureus assessed as inhibition of microbial growth at =< 0.25 ug/ml by CLSI method
Staphylococcus [17] = assay: Antimicrobial activity against Linezolid and methicillin-resistant coagulase-negative Staphylococcus by CLSI method
Staphylococcus aureus [18] = assay: Ratio of Linezolid to compound activity for cfr-expressing methicillin-resistant Staphylococcus aureus
Staphylococcus [19] = assay: Antimicrobial activity against linezolid-resistant coagulase-negative Staphylococcus assessed as inhibition of microbial growth at =< 0.25 ug/ml by CLSI method
Staphylococcus aureus [20] = assay: Antimicrobial activity against oxacillin-susceptible Staphylococcus aureus by CLSI method
Staphylococcus aureus [21] = assay: Antimicrobial activity against oxacillin-susceptible Staphylococcus aureus assessed as inhibition of microbial growth at =< 0.25 ug/ml by CLSI method
Staphylococcus aureus [22] = assay: Ratio of Linezolid MIC50 to compound MIC50 for Linezolid-susceptible Staphylococcus aureus
Staphylococcus aureus [23] = assay: Antimicrobial activity against oxacillin-susceptible Staphylococcus aureus assessed as inhibition of microbial growth at 0.5 ug/ml by CLSI method
Staphylococcus aureus [24] = assay: Antimicrobial activity against linezolid-susceptible Staphylococcus aureus by CLSI method
Staphylococcus [25] = assay: Antimicrobial activity against linezolid-susceptible coagulase-negative Staphylococcus assessed as inhibition of microbial growth at 0.5 ug/ml by CLSI method
Staphylococcus aureus [26] = assay: Antimicrobial activity against linezolid-resistant Staphylococcus aureus by CLSI method
Staphylococcus aureus [27] = assay: Antimicrobial activity against linezolid-susceptible Staphylococcus aureus assessed as inhibition of microbial growth at =< 0.25 ug/ml by CLSI method
Staphylococcus aureus [28] = assay: Ratio of Linezolid MIC90 to compound MIC90 for Linezolid-susceptible Staphylococcus aureus
Staphylococcus [29] = assay: Antimicrobial activity against linezolid-resistant coagulase-negative Staphylococcus assessed as inhibition of microbial growth at 2 ug/ml by CLSI method
Staphylococcus [30] = assay: Antimicrobial activity against linezolid-resistant coagulase-negative Staphylococcus assessed as percent susceptible strain by CLSI method
Staphylococcus [31] = assay: Antimicrobial activity against linezolid-susceptible coagulase-negative Staphylococcus assessed as percent susceptible strain by CLSI method
[32] = Antimicrobial activity against oxacillin-susceptible coagulase-negative Staphylococcus aureus assessed as percent susceptible strain by CLSI method
Staphylococcus aureus [33] = assay: Antimicrobial activity against oxacillin-resistant Staphylococcus aureus assessed as percent susceptible strain by CLSI method
Staphylococcus aureus [34] = assay: Antimicrobial activity against linezolid-susceptible Staphylococcus aureus assessed as percent susceptible strain by CLSI method
Staphylococcus aureus [35] = assay: Antimicrobial activity against linezolid-resistant Staphylococcus aureus assessed as percent susceptible strain by CLSI method
Staphylococcus aureus [36] = assay: Antimicrobial activity against oxacillin-susceptible Staphylococcus aureus assessed as percent susceptible strain by CLSI method

SMILES	MIC50 (Staphylococcus [2])	MIC90 (Staphylococcus [2])	MIC50 (Staphylococcus [3])	MIC90 (Staphylococcus [3])	MIC50 (Staphylococcus aureus [8])	MIC90 (Staphylococcus aureus [8])	MIC50 (Staphylococcus [10])	MIC50 (Staphylococcus [13])	MIC90 (Staphylococcus [13])	MIC (Staphylococcus [17])	MIC50 (Staphylococcus aureus [20])	MIC90 (Staphylococcus aureus [20])	MIC50 (Staphylococcus aureus [24])	MIC90 (Staphylococcus aureus [24])	MIC50 (Staphylococcus aureus [26])	other results
Cn1nnc(-c2ccc(-c3ccc(N4C[C@H](CO)OC4=O)cc3F)cn2)n1 [TEDIZOLID]	0.25 µg/mL (≈ 0.675 µM)	0.25 µg/mL (≈ 0.675 µM)	0.125 µg/mL (≈ 0.338 µM)	0.25 µg/mL (≈ 0.675 µM)	0.25 µg/mL (≈ 0.675 µM)	0.5 µg/mL (≈ 1.35 µM)	2 µg/mL (≈ 5.4 µM)	0.25 µg/mL (≈ 0.675 µM)	0.25 µg/mL (≈ 0.675 µM)	0.25 µg/mL (≈ 0.675 µM)	0.25 µg/mL (≈ 0.675 µM)	0.25 µg/mL (≈ 0.675 µM)	0.25 µg/mL (≈ 0.675 µM)	0.5 µg/mL (≈ 1.35 µM)	0.5 µg/mL (≈ 1.35 µM)	inhibition at 4 µg/mL (Staphylococcus [1]): 100%; inhibition at 0.5 µg/mL (Staphylococcus aureus [4]): 100%; inhibition at 0.5 µg/mL (Staphylococcus aureus [5]): 100%; inhibition (INH) (Staphylococcus aureus [6]): 70%; MIC (Staphylococcus aureus [7]): 0.5 µg/mL (≈ 1.35 µM); inhibition at 1 µg/mL (Staphylococcus [9]): 20%; inhibition at 0.5 µg/mL (Staphylococcus aureus [11]): 100%; inhibition at 0.5 µg/mL (Staphylococcus [12]): 20%; MIC (Staphylococcus [14]): 0.25 µg/mL (≈ 0.675 µM); inhibition (INH) (Staphylococcus [15]): 99.5%; inhibition (INH) (Staphylococcus aureus [16]): 100%; Ratio (Staphylococcus aureus [18]): 32; inhibition (INH) (Staphylococcus [19]): 20%; inhibition (INH) (Staphylococcus aureus [21]): 99%; Ratio (Staphylococcus aureus [22]): 8; inhibition at 0.5 µg/mL (Staphylococcus aureus [23]): 100%; inhibition at 0.5 µg/mL (Staphylococcus [25]): 100%; inhibition (INH) (Staphylococcus aureus [27]): 83.1%; Ratio (Staphylococcus aureus [28]): 4; inhibition at 2 µg/mL (Staphylococcus [29]): 80%
CN[C@H](CC(C)C)C(=O)N[C@H]1C(=O)N[C@@H](CC(N)=O)C(=O)N[C@H]2C(=O)N[C@H]3C(=O)N[C@H](C(=O)N[C@H](C(=O)O)c4cc(O)cc(O)c4-c4cc3ccc4O)[C@H](O)c3ccc(c(Cl)c3)Oc3cc2cc(c3O[C@@H]2O[C@H](CO)[C@@H](O)[C@H](O)[C@H]2O[C@H]2C[C@](C)(N)[C@H](O)[C@H](C)O2)Oc2ccc(cc2Cl)[C@H]1O [VANCOMYCIN]	2 µg/mL (≈ 1.38 µM)	2 µg/mL (≈ 1.38 µM)	2 µg/mL (≈ 1.38 µM)	2 µg/mL (≈ 1.38 µM)	1 µg/mL (≈ 0.69 µM)	2 µg/mL (≈ 1.38 µM)	2 µg/mL (≈ 1.38 µM)	2 µg/mL (≈ 1.38 µM)	2 µg/mL (≈ 1.38 µM)	2 µg/mL (≈ 1.38 µM)	1 µg/mL (≈ 0.69 µM)	1 µg/mL (≈ 0.69 µM)	1 µg/mL (≈ 0.69 µM)	1 µg/mL (≈ 0.69 µM)	2 µg/mL (≈ 1.38 µM)	Activity (Staphylococcus [30]): 100%; Activity (Staphylococcus [31]): 100%; Activity [32]: 100%; Activity (Staphylococcus aureus [33]): 99.2%; Activity (Staphylococcus aureus [34]): 99.6%; Activity (Staphylococcus aureus [35]): 100%; Activity (Staphylococcus aureus [36]): 100%
